Patent US20040147434A1, “Use of enzyme inhibitors of the dipeptidypeptidase iv (ec3.3.14.5) in addition to the aminopeptidase n (ec 3.4.11.2), individually or in a combination thereof, and pharmaceutical preparations thereof for the prevention and/or therapy of ischaemia-caused acute and chronic neurodegenerative process …” (priority 2001, published 2004)

Legend:
[1] = system: peripheric mononuclear cells (MNC) or T lymphocytes; details: simultaneous and separate administration of inhibitors of DP IV and APN; cited from earlier work
[2] = system: hippocampal neurons; assay: Neuroprotection in organotypical hippocampus slices after 40 min oxygen and glucose deprivation (propidium iodide fluorescence); assay type: cell-based, rat; details: exclusively actinonine (10 μm), 24 h before, during and 24 h after ischemia; n=5 experiments
Protocol: FIG. 2: Protective effect of inhibitors of DP IV (I63) and APN (actinonine) on the survival of hippocampal neurons after a transient deprivation of oxygen and glucose: There are shown in the FIG. transmission photographs (respective left sides) and fluorescence photographs (respective right sides) of hippocampus slices 24 h after an experimental ischemia. The intensity of the red fluorescence corresponds to the neuronal cell damage (B, D). The slices shown in FIGS. 2A and 2B were subjected to a 40 min deprivation of oxygen and glucose in the absence of DP IV or APN inhibitors. […] The protective effect occurring at a simultaneous application of I63 and actinonine is significant (P=0,0000; calculated by means of a two side heteroscedastic t test) and is about 62%.
Organotypical hippocampus slices were prepared and cultivated according to Striggow F et al. (Striggow, F, Riek M, Breder J, Henrich-Noak P, Reymann K G, Reiser G (2000). The protease thrombin is an endogenous mediator of hippocampal neuroprotection against ischemia at low concentrations but causes degeneration at high concentrations. Proc. Natl. Acad. Sci. (USA) 97: 2264-2269). […] Only after said time, there occurrs a characteristic red fluorescence, the intensity of which is proportional to the neuronal cell damage. […]

Row | Structure (SMILES) | DNA synthesis and proliferation of human immune cells [1] | protective effect on the survival of hippocampal neurons after transient ischemia [2]
1 | N[C@@H](CCCCNC(=O)OCc1ccc([N+](=O)[O-])cc1)C(=O)N1CCSC1 [I49, Lys[Z(NO2)] thiazolidide] | inhibited | 
2 | CCCCC[C@H](CC(=O)NO)C(=O)N[C@H](C(=O)N1CCC[C@H]1CO)C(C)C [actinonine] | inhibited | about 34%
